Results published in patent publication US20060069289A1, “Process for production 2-deoxyaldose compound” (MITSUI CHEMICALS, INC., priority 2003, published 2006).

Assay: Stability test of KDG to heat in water (remaining rate observed according to HPLC)
Assay type: physicochemical
Conditions: for Remaining Rate of KDG: water 10 times the amount of KDG
Procedure: HPLC Analytic Conditions: ShodexAsahipack NH2-P50 (manufactured by Showa Denko K.K.), 50 mM sodium hydrogen phosphate aqueous solution, flow rate of 1 ml/min. and detection UV of 210 nm.
1.21 g (5.61 mmole) of KDG potassium salt was dissolved in 10 g of water (10 times the amount of KDG). pH of the solution was 7.3. Subsequently, when 64 mg (1.69 mmole: 0.3 equivalent) of granular sodium borohydride was added at 25° C., the reaction temperature increased to 33° C. Furthermore, pH after the completion of the reaction was 10.8. After the reaction was completed, when observed by HPLC, the reaction yield of metasaccharic acid was 94%. The reaction heat was observed as remarkable. […] In order to carry out the reaction with the good yield, stability to the heat of KDG was measured in the presence of water with 10 times the amount of KDG. (Table 1) (Table 2) (Table 3)
Here, the results of stability test to the KDG heat in the presence of water 10 times the amount of KDG are shown below. (Table 4)

## O=C(O)C(O)CC(O)C(O)CO (stereo not drawn)
Generated product of the sodium borohydride reduction, aqueous reaction conditions
  Stability (in words): stable

## O=C(O)C(=O)C[C@H](O)[C@H](O)CO [KDG, 2-keto-3-deoxy-D-gluconic acid]
pH 7.0, 25° C., 2 hours
  Remaining Rate of KDG: 101%
pH 7.0, 25° C., 4 hours
  Remaining Rate of KDG: 100%
pH 7.0, 25° C., 21 hours
  Remaining Rate of KDG: 100%
pH 7.0, 25° C., 24 hours
  Remaining Rate of KDG: 101%
pH 7.0, 50° C., 2 hours
  Remaining Rate of KDG: 100%
pH 7.0, 50° C., 4 hours
  Remaining Rate of KDG: 101%
pH 7.0, 50° C., 21 hours
  Remaining Rate of KDG: 100%
pH 7.0, 50° C., 24 hours
  Remaining Rate of KDG: 99%
pH 8.5, 25° C., 2 hours
  Remaining Rate of KDG: 100%
pH 8.5, 25° C., 4 hours
  Remaining Rate of KDG: 99%
pH 8.5, 25° C., 21 hours
  Remaining Rate of KDG: 101%
pH 8.5, 25° C., 24 hours
  Remaining Rate of KDG: 100%
pH 8.5, 50° C., 2 hours
  Remaining Rate of KDG: 101%
pH 8.5, 50° C., 4 hours
  Remaining Rate of KDG: 100%
pH 8.5, 50° C., 21 hours
  Remaining Rate of KDG: 99%
pH 8.5, 50° C., 24 hours
  Remaining Rate of KDG: 98%
pH 10.5, 25° C., 2 hours
  Remaining Rate of KDG: 102%
pH 10.5, 25° C., 4 hours
  Remaining Rate of KDG: 101%
pH 10.5, 25° C., 21 hours
  Remaining Rate of KDG: 100%
pH 10.5, 25° C., 24 hours
  Remaining Rate of KDG: 101%
pH 10.5, 50° C., 2 hours
  Remaining Rate of KDG: 101%
pH 10.5, 50° C., 4 hours
  Remaining Rate of KDG: 99%
pH 10.5, 50° C., 21 hours
  Remaining Rate of KDG: 94%
pH 10.5, 50° C., 24 hours
  Remaining Rate of KDG: 93%
pH 12.0, 4° C., 2 hours
  Remaining Rate of KDG: 101%
pH 12.0, 4° C., 4 hours
  Remaining Rate of KDG: 99%
pH 12.0, 4° C., 21 hours
  Remaining Rate of KDG: 100%
pH 12.0, 4° C., 24 hours
  Remaining Rate of KDG: 98%
pH 12.0, 25° C., 2 hours
  Remaining Rate of KDG: 99%
pH 12.0, 25° C., 4 hours
  Remaining Rate of KDG: 95%
pH 12.0, 25° C., 21 hours
  Remaining Rate of KDG: 84%
pH 12.0, 25° C., 24 hours
  Remaining Rate of KDG: 79%
pH 12.0, 50° C.
  Stability to heat (in words): remarkably decomposed
pH 12.0, 50° C., 2 hours
  Remaining Rate of KDG: 61%
pH 12.0, 50° C., 4 hours
  Remaining Rate of KDG: 56%
